Publication PMC3024946, “Hydroxyproline-containing collagen analogs trigger the release and activation of collagen-sequestered proMMP-2 by competition with prodomain-derived peptide P33-42” (Fibrogenesis & Tissue Repair, 2011)

Columns and labels:
ActMMP-9 = assay: Solid-phase binding of [125I]-actMMP-9 to immobilized collagens/peptides (microwells); parameters: species or system human; details: ActMMP-9, 2 ng/well; coated wells; 4°C, 2 h; residual radioactivity; mean ± SD, at least five experiments in triplicate
Protocol: (§1) Human recombinant proMMPs and in vitro activated MMPs were obtained from Invitek and were labeled with the [^125I]-Bolton-Hunter reagent according to the manufacturer's instructions (PerkinElmer, Rodgau, Germany) before the buffer was exchanged for phosphate-buffered saline (PBS) with 0.05% (vol/vol) Tween 20 by gel filtration as described previously. Specific radioactivity for [^125I]-MMPs was 3-9 × 10^4 cpm/ng. Precipitation with 10% (wt/vol) trichloroacetic acid and 200 μg of BSA recovered 96% to 100% of protein-bound radioactivity. Aliquots of labeled MMPs were frozen and stored at -80°C. The activity and integrity were checked by substrate gel zymography using SDS-PAGE and autoradiography with overnight exposure to Biomax MS film (Kodak, Stuttgart, Germany) (Figure 2A).
(§2) Native human CI, CIII and CVI were purified from skin tissue and placenta. The CI single chains α1(I) and α2(I) were obtained and modified as described previously. To prepare defined fragments, 2 mg of α1(I) were dissolved in 1 ml of 70% (vol/vol) formic acid at room temperature, the tubes were flushed with nitrogen for 10 min, and then 2 mg of CB were added. After incubation for 4 h at 37°C, free CB was neutralized and the samples were lyophilized. The peptides CB3, CB6, CB7 and CB8 were separated from the reaction mixture by gel filtration followed by ion-exchange chromatography. The resulting peptides were characterized by amino acid analysis and SDS-PAGE [45, 46]. The CB peptides had the following melting temperatures: CB3, 23.9°C; CB6, 26.7°C; CB7, 28.1°C; and CB8, 28.0°C [31].
(§3) The following collagen analogs and control peptides were synthesized as described previously: (GPO)10, H-Gly-Cys-Hyp-(Gly-Pro-Hyp)10-Gly-Cys-Hyp-Gly-NH2; (GPP)10, H-Gly-Cys-Pro-(Gly-Pro-Pro)10-Gly-Cys-Pro-Gly-NH2; and GAP, H-Gly-Ala-Cys-(Gly-Ala-Pro)5-Gly-Phe-Hyp-Gly-Glu-Arg-(Gly-Ala-Pro)5-NH2. Peptides (POG)10, (PPG)10 and (POG)5 were purchased from Peptide International (Louisville, KY, USA). Spontaneous triple-helix assembly was approved by polarimetry over a 10-cm path length at 1°C/min in 10 mM phosphate buffer, pH 7.4. At 5 mg/ml, midpoints of melting curves occurred at 82.3 ± 1.4°C for (GPO)10 and at 45.8 ± 0.8°C for (GPP)10. […] Graphs were calculated from the primary data using a custom fitting program written by D.A. Slatter (Department of Biochemistry, University of Cambridge, Cambridge, UK [48]) to model different possible transitions. All collagens, CI derivatives and peptides were stored in stock solutions of 2 mg/ml in 150 mM acetic acid at -20°C.
(§4) ProMMP-2 and proMMP-9 or actMMP-2 and actMMP-9 were bound to nitrocellulose and polystyrene-immobilized native collagens, CI chains, CB peptides or structural analogs. Serial dilutions of collagens or CI derivatives in 150 mM acetic acid were dotted at 3 × 3 μl to a nitrocellulose membrane with high protein-binding capacity (GE Healthcare, Munich, Germany). Air-dried membranes were blocked with PBS and 0.3% (vol/vol) Tween 20 overnight at 4°C, washed three times, and incubated with 1 ng/ml [^125I]-pro- and actMMP-2 and pro- and actMMP-9 in PBS and 0.3% (vol/vol) Tween 20 for 2 h at room temperature. Membranes were washed again and air-dried, and bound MMP was monitored by autoradiography. In parallel, polystyrene microtiter plates (Dynex, Chantilly, VA, USA) were coated with collagen proteins and peptides. Here 2 μg/well or 200 ng/well proteins and peptides or BSA as control were immobilized in 100 μl of 50 mM ammonium bicarbonate buffer, pH 9.6, by overnight incubation at 4°C. Immobilization efficacies were 20% to 45% of total proteins. Wells were washed three times with PBS, and nonspecific binding sites were blocked with PBS and 0.05% (vol/vol) Tween 20 for 1 h at room temperature. All incubation steps were performed with 2 ng of [^125I]-MMPs at 4°C for 2 h. […]

ProMMP-2 = assay: Solid-phase binding of [125I]-proMMP-2 to immobilized collagens/peptides (microwells); parameters: species or system human; details: for Binding of [125I]-MMPs: ProMMP-2, 2 ng/well, coated wells, 4°C, 2 h, residual radioactivity, mean ± SD, at least five experiments in triplicate
Protocol: as §1, §2, §3, §4

[1] = Triple-helix melting temperature; assay type: physicochemical; details: polarimetry; 5 mg/ml; 10 mM phosphate buffer, pH 7.4, 1°C/min
Protocol: as §2, §3

ProMMP-9 = assay: Solid-phase binding of [125I]-proMMP-9 to immobilized collagens/peptides (microwells); parameters: species or system human; details: for Binding of [125I]-MMPs: ProMMP-9, 2 ng/well, coated wells, 4°C, 2 h, residual radioactivity, mean ± SD, at least five experiments in triplicate
Protocol: as §1, §2, §3, §4

Substance | Binding of [125I]-MMPs (ActMMP-9) | Binding of [125I]-MMPs (ProMMP-2) | binding of proMMP vs respective actMMP (ProMMP-2; proMMP-2 vs actMMP-2 (stated jointly for MMP-2 and MMP-9)) | midpoint of melting curve [1] | Binding of [125I]-MMPs (ProMMP-9) | binding of proMMP vs respective actMMP (ProMMP-9; proMMP-9 vs actMMP-9 (stated jointly for MMP-2 and MMP-9)) | interaction with control peptides (ProMMP-2; pro- and act-forms of MMP-2 and MMP-9, in words)
H-Gly-Cys-Hyp-(Gly-Pro-Hyp)10-Gly-Cys-Hyp-Gly-NH2 [(GPO)10, triple-helical Hyp-containing collagen analog] | 5.4 ± 0.6 % of maximum control | 13.0 ± 3.5 % of maximum control | two- to sevenfold more strongly | 82.3 ± 1.4 °C | 36.1 ± 1.7 % of maximum control | two- to sevenfold more strongly | 
H-Gly-Cys-Pro-(Gly-Pro-Pro)10-Gly-Cys-Pro-Gly-NH2 [(GPP)10, Triple-helical Gly-Pro-Pro (GPP)10, devoid of Hyp] | 0.9 ± 0.4 % of maximum control | 3.6 ± 2.0 % of maximum control |  | 45.8 ± 0.8 °C | 4.9 ± 0.7 % of maximum control |  | only marginal interactions
